{"source": "patent US12673022B2", "about": "“Drug delivery system using solution” (Kyoto University, priority 2018, dated 2026)", "test_system": "C57BL/6J mouse right lower limb gastrocnemius", "experiment": "DNA mutation introduction efficiency using mRosa26 gRNA (T7E1 assay) after local administration", "format": "in vivo", "conditions": "Example 6; administration solution 2: 25 mM or 250 mM 2′-deoxycytidine, 6-phospho-D-gluconic acid, N-carbamyl-L-aspartic acid or 2-deoxy-D-glucose-6-phosphate, 533 mM sodium chloride; 50 μL once; Dunnett's test; FIG. 10", "experimental": "Cas9 protein (20 μg), mRosa26 gRNA (5 μg), 10×PBS (5 μL) and a 2.0 M aqueous 2′-deoxycytidine solution (6.25 μL) were mixed so as to obtain an aqueous solution having final concentrations of 400 ng/μL Cas9 protein, 100 ng/μL mRosa26 gRNA, 533 mM sodium chloride and 250 mM 2′-deoxycytidine. The concentration of the resultant solution was adjusted to be 533 mM with a 5 M aqueous sodium chloride solution, diluted with UltraPure DNase/RNase-Free Distilled Water up to a liquid volume of 50 μL and incubated at normal temperature for 15 minutes. […] The Cas9 protein herein was subjected to buffer replacement with 250 mM sodium chloride by use of Amicon® Ultra 2 mL Centrifugal Filters and then put in use.\nCas9 protein (40 μg), mRosa26 gRNA (10 μg), 10×PBS (5 μL), and a […] compound stock solution (25 μL) were mixed so as to obtain final concentrations: 800 ng/μL Cas9 protein, 200 ng/μL mRosa26 gRNA, 533 mM sodium chloride and 250 mM compound. […]\nTo the right lower limb gastrocnemius of each of 9 weeks-old male C57BL/6J mice (CLEA Japan, Inc), administration solution 1 or administration solution 2 and PBS (50 μL) were administered. […] The resultant PCR product was purified by QIAquick PCR purification kit (QIAGEN), treated with T7 Endonuclease I (NEB) and analyzed by Agilent 4200 TapeStation (Agilent). […]\nAs shown in FIG. 10 and FIG. 11, to find statistical significant difference between GABA and each conditions of the compounds, Dunnett's multiple comparison test using DNA mutation introduction efficiency, Indel (%), and exon skipping efficiency, was carried out. It was determined that if P value is less than 0.05, these is a statistically significant difference. […]\nA solution for transduction containing 2′-deoxycytidine as a compound (A3) and sodium chloride as the (B) salt was prepared. […] Administration solution 1 was locally administered to the mouse right lower limb gastrocnemius and the activity to cleave a target gene was evaluated. […]", "data": [{"smiles": "NC(=O)N[C@@H](CC(=O)O)C(=O)O", "note": "[N-Carbamyl-L-aspartic acid]", "values": [{"measurement": "Genome editing efficiency (indel (%)) compared to 250 mM GABA", "result": "statistically significant results compared to GABA"}]}]}
